In patent publication US20050148069A1, “IGF-1 instructs multipotent adult CNS neural stem cells to an oligodendroglial lineage” (priority 2003, published 2005):

Tests used:
[1] = tested on: adult hippocampus-derived neural progenitor cells; experiment: proliferation by BrdU incorporation; format: cell-based, rat; details: 500 ng/ml IGF-I
Method: We next determined whether proliferation of progenitors might contribute to the observed increase in oligodendrocyte differentiation. Bromodeoxyuridine (BrdU) (2.5 μM) was added to parallel cultures for 12 hours at times 0-, 12-, 24-, and 36-h after plating, followed by fixation and quantification of total cell numbers and BrdU+ cells. We counted the progenitor cells (evidenced by a lack of RIP staining) that were labeled with BrdU at each time point. For cells grown in the absence of IGF-I, we observed a progressive decrease in the percentage of cells that were proliferating (BrdU+) during the 48-h experiments (FIG. 3B). […] This initial decrease in proliferation is most likely due to FGF-2 mitogen withdrawal. […]
Cells were fixed with 4% paraformaldehyde, followed by immunocytochemical staining as described (Palmer et al., 1999). […] Quantification of cell phenotypes was with StereoInvestigator (MicroBrightfield Inc.); for each marker, 500-1000 cells were sampled systematically from standardized fields at 40×magnification. For quantification of live/dead cells, images were taken of cultures live-stained with propidum iodide (1 μg/ml; Molecular Probes) and Hoescht 33342 (1 μg/ml; Sigma) at 10×magnification, and cells were counted using Image-Pro (Media Cybernetics). […]

[2] = tested on: multipotent neural progenitor cells derived from the whole brain of P10 ICR mice; experiment: differentiation of whole brain-derived multipotent neural progenitor cells; format: cell-based, mouse; details: IGF-I treatment, primary cultures (unpublished data)
Method: The neural progenitor cells isolated from the hippocampus of female Fischer 344 used in this study have been characterized previously (Gage et al., 1995; Palmer et al., 1997). The whole brain-derived neural stem cells from PIO ICR mice were isolated and cultured according to the methods as described, with slight modifications. Cells were cultured as previously described (Gage et al., 1995; Ray et al., 1993). Cells between passages 10 and 20 were used for in vitro differentiation analyses. To induce differentiation, cells were plated into 4-well chamber slides at a density of 55,000-75,000 cells per well and were allowed to proliferate in N2-supplemented (Invitrogen) DMEM:F12 (Omega Scientific) medium containing 20 ng/ml FGF-2 (PeproTech, Inc.) for 24 hours. FGF-2 was then withdrawn and cells were subsequently treated with differentiation media. […] For IGF-induction experiments, cells were trypsinized, washed with 1× PBS, and plated into insulin-free N2 medium. Either human recombinant IGF-I or IGF-II (500 ng/ml; R&D Systems) or insulin (500 ng/ml; Sigma) was added for 4 days, except when indicated otherwise. In some cultures, BrdU (2.5 μM, Sigma) was added to label dividing cells, and Q-VD-OPh (2 μM, Enzyme Systems Products) was added to prevent apoptosis.

IGF-I: human recombinant IGF-I (R&D Systems), growth factor polypeptide
percentage of RIP− cells that incorporated BrdU ([1]; 12-h BrdU periods up to 48 h): decreasing trend in the first three time periods | RIP+ cells positive for BrdU ([1]; after 24 hours): significant increase in RIP+ cells positive for BrdU | differentiation into oligodendrocytes [2]: exhibited a preferential differentiation into oligodendrocytes
